**Q.** With CCCCCCCCCCCCNC1=NC(C)(C)N=C(NCc2ccc(S(N)(=O)=O)cc2)N1 as the compound, how does the melting point read?
**A.** 188 to 191 °C

**Q.** With CC(=O)c1cc(S(N)(=O)=O)ccc1O as the compound, how does the melting point read?
**A.** 197 to 199 °C

**Q.** With COc1ccc(C(=O)N2CCCC(=O)c3ccc(Cl)cc3CCC2=O)cc1 as the compound, how does the melting point read?
**A.** 143 °C

**Q.** Which melting point does the source give for CCOC(=O)c1cc([N+](=O)[O-])ccc1O here?
**A.** 97 °C

**Q.** For COC(=O)N(CC(=O)O)C(=O)c1cccc2c(C(F)(F)F)c(OC)ccc12, which melting point is on record?
**A.** 148 to 150 °C

**Q.** For O=C(O)Cc1ccc2occ(-c3ccc(C(=O)O)cc3)c2c1, which melting point is on record?
**A.** 278 to 281 °C

**Q.** For COc1ccc(Cn2nnc(-c3cccc(C(=O)NCc4ccc(C(=O)O)cc4)c3)n2)cc1, which melting point is on record?
**A.** 202 to 205 °C

**Q.** For Nc1cnc(Br)c(Cl)n1, which melting point is on record?
**A.** 120 to 122 °C

**Q.** For O=C(O)Cc1ccc(COc2cccc(-c3c(-c4ccccc4)cnc4c(C(F)(F)F)cccc34)c2)cc1, which melting point is on record?
**A.** 122 °C

**Q.** For CC(C)(Oc1ccc(CCC(=O)c2ccc(-c3ccc(C(F)(F)F)cc3)s2)c(F)c1F)C(=O)O, which melting point is on record?
**A.** 165 to 166 °C

**Q.** For COc1cc(OC)c2c(-c3ccc4c(c3)OCO4)c3c(cc2c1)C(=O)NC3, which melting point is on record?
**A.** 252 to 254 °C

**Q.** For CCCc1nn(-c2ccc(C(F)(F)F)cn2)cc1CCCCO, which melting point is on record?
**A.** 80 to 81 °C

**Q.** With CCCSc1nsnc1O as the compound, how does the melting point read?
**A.** 84 to 85 °C

**Q.** Which melting point does the source give for CCCCN(CCCC)c1ccc(C=Cc2ccc(C=CC3=C(C#N)C(=C(C#N)C#N)OC3(C)C)cc2)cc1 here?
**A.** 224 to 226 °C

**Q.** Which melting point does the source give for COc1ccc(-c2nc3n(c2-c2ccccn2)CCC3)cc1 here?
**A.** 142 to 145 °C

**Q.** For CSc1ccc(Cn2nc(-c3ccc(SC)cc3)c(-c3ccc(F)cc3)cc2=O)cc1, which melting point is on record?
**A.** 116 °C

**Q.** For O=C1CCC(N2Cc3c(CNC(=O)Nc4cccc(Cl)c4)cccc3C2=O)C(=O)N1 (stereo not given), which melting point is on record?
**A.** 250 to 252 °C

**Q.** With CCCn1cc(C(=O)NCc2ccc(Cl)cc2)c(=O)c2cc(CN(C)C[C@@H](O)c3ccccc3)sc21 as the compound, how does the melting point read?
**A.** 45 to 48 °C

**Q.** Which melting point does the source give for OC1(c2c[nH]c(-c3ccc(F)cc3)c2-c2ccncc2)CCNCC1 here?
**A.** 197 to 199 °C

**Q.** For Fc1ccc(-c2cc3ccccc3n2-c2ccccc2)cc1, which melting point is on record?
**A.** 126 to 128 °C

**Q.** For CCCCc1ncc(C=O)n1Cc1ccc(C(=O)OC)c(Cl)c1Cl, which melting point is on record?
**A.** 94 to 96 °C

**Q.** For COC(=O)c1coc2ccc(OCc3ccccc3)cc2c1=O, which melting point is on record?
**A.** 88 to 89 °C

**Q.** Which melting point does the source give for CNc1ccc(OC)cc1[N+](=O)[O-] here?
**A.** 93 to 94 °C

**Q.** With Brc1cnn2c(-c3cccnc3)ccnc12 as the compound, how does the melting point read?
**A.** 243 to 244 °C

**Q.** For N#CC1CN1C(=O)NC(=O)c1ccc(-c2ccccc2)cc1 (stereo not given), which melting point is on record?
**A.** 168 to 172 °C

**Q.** With COC(=O)CCC(=O)c1ccc(NC(=O)c2ccc(C)cc2)cc1 as the compound, how does the melting point read?
**A.** 192 to 195 °C

**Q.** For Cc1ccc2c(=O)c(C(=O)O)cn(N)c2n1, which melting point is on record?
**A.** 239 to 240 °C

**Q.** For Cc1[nH]c(CN(C)C)c(C)c1-c1ccnc(Nc2ccc(F)cc2)n1, which melting point is on record?
**A.** 88.4 to 91.6 °C

**Q.** With COc1ccc(N(CCCC(=O)O)C(=O)C(C)N(C(=O)c2ccco2)c2ccc(OC)cc2)cc1 (stereo not given) as the compound, how does the melting point read?
**A.** 204 to 206 °C

**Q.** With CCCCCCCCCCCCCCN(CCCCCCCCCCCCCC)S(=O)(=O)c1ccc(C)cc1 as the compound, how does the melting point read?
**A.** 54 °C

**Q.** For Cc1c(C(=O)c2cnn(C(C)C)c2O)ccc2sc(=O)n(C)c12, which melting point is on record?
**A.** 175 to 177 °C

**Q.** Which melting point does the source give for c1ncn(CCc2ccc3c(c2)-c2[nH]nc(-c4ccsc4)c2C3)n1 here?
**A.** 167 to 168 °C

**Q.** Which melting point does the source give for CN(C)Cc1ccc(Cl)cc1C(=O)c1ccccc1F here?
**A.** 91 to 92 °C

**Q.** Which melting point does the source give for O=S(=O)(CC(Cl)(Cl)Cl)c1cc(Cl)ccc1Cl here?
**A.** 96 °C

**Q.** For CC(=O)OCSC1=CCC2C3CCC4=CC(=O)C=CC4(C)C3(F)C(O)CC12C (stereo not given), which melting point is on record?
**A.** 193 to 194 °C

**Q.** For CCc1nc2c(N3CCOCC3)ncn(CC)c-2n1, which melting point is on record?
**A.** 103 to 107 °C

**Q.** Which melting point does the source give for COc1ccc2[nH]ccc2c1OCc1ccccc1 here?
**A.** 83 to 84 °C

**Q.** Which melting point does the source give for O=C(O)CC(c1ccc(F)cc1)c1ccc(F)cc1 here?
**A.** 106 to 107 °C

**Q.** Which melting point does the source give for CC1CCCN(c2c(Br)cc3c4c(cccc24)C(=O)N(O)C3=O)C1 (stereo not given) here?
**A.** > 250 °C

**Q.** For O=C1c2ccccc2C(=O)N1Cc1ccc(/C=C/C(c2cc(Cl)cc(Cl)c2)C(F)(F)F)cc1Cl (stereo not given), which melting point is on record?
**A.** 141 to 143 °C

**Q.** For Cc1cc(Nc2ccnc(Nc3ccc(S(=O)(=O)N4CCC(C(O)c5ccncc5)CC4)cc3)n2)ccc1F (stereo not given), which melting point is on record?
**A.** 162 °C

**Q.** Which melting point does the source give for O=C(C=Cc1cccc(Cl)c1Cl)c1ccc(OC2CCCCO2)cc1 (stereo not given) here?
**A.** 116 to 118 °C

**Q.** With O=C1CCCC2=C1C(c1ccc(Cl)c(C(F)(F)F)c1)C1=C(CCS1)N2 (single isomer, unassigned; (+)) as the compound, how does the melting point read?
**A.** > 250 °C

**Q.** Which melting point does the source give for Cc1ccc(C)n1-c1cc2c(cc1C(F)(F)F)[nH]c(=O)c(=O)n2CC(=O)NCc1ccccc1 here?
**A.** > 250 °C

**Q.** Which melting point does the source give for O=C(Oc1ccc(Cl)cc1)C1CCCc2ccc([N+](=O)[O-])cc21 (stereo not given) here?
**A.** 108 to 109 °C

**Q.** Which melting point does the source give for CC(=O)NCc1ccc(C#Cc2ccc3c(c2)C(C)(C)CCC3(C)C)cc1 here?
**A.** 220 to 223 °C

**Q.** Which melting point does the source give for COc1ccc(C=C2SC(=S)N(CC(=O)O)C2=O)cc1 here?
**A.** 250 to 253 °C

**Q.** For O=C(Nc1ccc([N+](=O)[O-])cc1)N1CCN(c2nc(-c3ccccc3)nc3ccccc23)CC1, which melting point is on record?
**A.** 236 to 238 °C

**Q.** For CCCNC(=N)NC(=O)NCc1ccccn1, which melting point is on record?
**A.** 195 to 197 °C

**Q.** Which melting point does the source give for Brc1cccc(C=C2c3ccccc3CCc3ccccc32)c1 here?
**A.** 105 °C

From a melting point compilation (Tetko et al.; mined from patent text by program, amines drawn as free bases though some values may be those of a salt)
